Data set [1] deals with Pseudomonas aeruginosa (PA) isolates. In words: Clinical Trial I: MIC for PA isolates. Type of data set: cell-based. The note with it: for MIC50 / MIC90 / MIC: Pseudomonas aeruginosa.
The nature of data set [2]: Clinical Trial II: sputum and plasma aztreonam concentrations. Type of data set: in vivo. The conditions noted are these: human, sputum, inhaled, 75 mg, sputum aztreonam concentration, median (range), 10 minutes postdose.
Data set [3] relates to Pseudomonas aeruginosa (PA) isolates. In words: Clinical Trial II: MIC of aztreonam for PA isolates. Type of data set: cell-based.
The next data set concerns CF patients. The conditions noted are these: cited from earlier work.
The next data set concerns PA. The note with it: cited from earlier work.
The mark [4] stands for this setting: Colistin, N = 62, 80 BID/28 days.

Values after ≈ are worked out from the molar mass of the structure shown. Read-outs that look alike come from different tables or passages of the source. Marks after values point to notes of the source that are not given here.

Turning to `C[C@H]1[C@H](NC(=O)/C(=N\OC(C)(C)C(=O)O)c2csc(N)n2)C(=O)N1S(=O)(=O)O` [aztreonam], the MIC50 in data set [1] (0 h, read-out: MIC50 of aztreonam for all PA isolates, isolates of AZLI-BID group, Day 0) is 2 µg/mL (≈ 4.59 µM); in data set [1] (0 h, read-out: MIC50 of aztreonam for all PA isolates, isolates of AZLI-Pooled group, Day 0) it was 2 µg/mL (≈ 4.59 µM); in data set [1] (0 h, read-out: MIC50 of aztreonam for all PA isolates, isolates of AZLI-TID group, Day 0) it was 2 µg/mL (≈ 4.59 µM); in data set [1] (0 h, read-out: MIC50 of aztreonam for all PA isolates, isolates of Placebo group, Day 0) it was not above 1 µg/mL; in data set [3] (read-out: MIC50 of aztreonam for all PA isolates, isolates of AZLI group, baseline), 4 µg/mL; in data set [3] (read-out: MIC50 of aztreonam for all PA isolates, isolates of Placebo group, baseline), 2 µg/mL. Besides, the MIC90 in data set [1] (0 h, read-out: MIC90 of aztreonam for all PA isolates, isolates of AZLI-BID group, Day 0) is 64 µg/mL (≈ 147 µM); in data set [1] (0 h, read-out: MIC90 of aztreonam for all PA isolates, isolates of AZLI-Pooled group, Day 0), 32 µg/mL (≈ 73.5 µM); in data set [1] (0 h, read-out: MIC90 of aztreonam for all PA isolates, isolates of AZLI-TID group, Day 0) it was 32 µg/mL (≈ 73.5 µM); in data set [1] (0 h, read-out: MIC90 of aztreonam for all PA isolates, isolates of Placebo group, Day 0) it was 64 µg/mL (≈ 147 µM); in data set [3] (read-out: MIC90 of aztreonam for all PA isolates, isolates of AZLI group, baseline), 128 µg/mL; in data set [3] (read-out: MIC90 of aztreonam for all PA isolates, isolates of Placebo group, baseline), 64 µg/mL. Moreover, the MIC in data set [1] (0 h, read-out: Maximum MIC of aztreonam for all PA isolates, isolates of AZLI-BID group, Day 0) was more than 2050 µg/mL; in data set [1] (0 h, read-out: Maximum MIC of aztreonam for all PA isolates, isolates of AZLI-Pooled group, Day 0), more than 2050 µg/mL; in data set [1] (0 h, read-out: Maximum MIC of aztreonam for all PA isolates, isolates of AZLI-TID group, Day 0) it was 1020 µg/mL; in data set [1] (0 h, read-out: Maximum MIC of aztreonam for all PA isolates, isolates of Placebo group, Day 0) it was 1020 µg/mL; in data set [1] (0 h, read-out: Minimum MIC of aztreonam for all PA isolates, isolates of AZLI-BID group, Day 0), not above 1 µg/mL; in data set [1] (0 h, read-out: Minimum MIC of aztreonam for all PA isolates, isolates of AZLI-Pooled group, Day 0) it was not above 1 µg/mL. In addition, the MIC in data set [1] (0 h, read-out: Minimum MIC of aztreonam for all PA isolates, isolates of AZLI-TID group, Day 0) is not above 1 µg/mL; in data set [1] (0 h, read-out: Minimum MIC of aztreonam for all PA isolates, isolates of Placebo group, Day 0), not above 1 µg/mL; in data set [3] (read-out: Maximum MIC of aztreonam for all PA isolates, isolates of AZLI group, baseline) it was more than 2050 µg/mL; in data set [3] (read-out: Maximum MIC of aztreonam for all PA isolates, isolates of Placebo group, baseline), 256 µg/mL; in data set [3] (read-out: Minimum MIC of aztreonam for all PA isolates, isolates of Placebo group, baseline), not above 1 µg/mL. Moreover, the concentration at 10 min in data set [2] (Day 0) was determined as 530000 ng/g; in data set [2] (Day 14), 677000 ng/g; in data set [2] (Day 28), 451000 ng/g.
With `NC[C@H]1O[C@H](O[C@H]2[C@H](O)[C@@H](O[C@H]3O[C@H](CO)[C@@H](O)[C@H](N)[C@H]3O)[C@H](N)C[C@@H]2N)[C@H](N)C[C@@H]1O` [tobramycin], the “MIC50 and MIC90 of tobramycin for PA isolates, change” value in data set [1] (Days −28 to 56) is given as not above 4 fold. In addition, the MIC50 in data set [1] (isolates of AZLI-BID group, Day −28, read-out: MIC50 of tobramycin for all PA isolates) was found to be 1 µg/mL (≈ 2.14 µM); in data set [1] (isolates of AZLI-Pooled group, Day −28, read-out: MIC50 of tobramycin for all PA isolates) it was 1 µg/mL (≈ 2.14 µM); in data set [1] (isolates of AZLI-TID group, Day −28, read-out: MIC50 of tobramycin for all PA isolates), 2 µg/mL (≈ 4.28 µM); in data set [1] (isolates of Placebo group, Day −28, read-out: MIC50 of tobramycin for all PA isolates), 2 µg/mL (≈ 4.28 µM). The MIC90 in data set [1] (isolates of AZLI-BID group, Day −28, read-out: MIC90 of tobramycin for all PA isolates) came out at 16 µg/mL (≈ 34.2 µM); in data set [1] (isolates of AZLI-Pooled group, Day −28, read-out: MIC90 of tobramycin for all PA isolates), 32 µg/mL (≈ 68.4 µM); in data set [1] (isolates of AZLI-TID group, Day −28, read-out: MIC90 of tobramycin for all PA isolates) it was 64 µg/mL (≈ 137 µM); in data set [1] (isolates of Placebo group, Day −28, read-out: MIC90 of tobramycin for all PA isolates), 256 µg/mL (≈ 548 µM). The “FEV1 Change (absolute change in FEV1 % predicted, comparison to control after 28 days of therapy)” value in the data set with CF patients (600 TID, N = 36) is on record as 10%^a. Moreover, the “PA Density Change (Log10)” value with PA (Tobramycin 600 TID, N = 36) is given as −2.0 Log10.
Regarding Colistin, the “FEV1 Change (relative change in FEV1 % predicted, comparison to control after 28 days of therapy)” value in the data set on CF patients (setting [4]) was 0%^b. Besides, the “PA Density Change (Log10)” value in the data set on PA (setting [4]) is −0.6 Log10.

B1: Pulmozyme: Pulmozyme registration trial comparator (protein, UniProt P24855 23-282, looked up)
Deoxyribonuclease-1: LKIAAFNIQTFGETKMSNATLVSYIVQILSRYDIALVQEVRDSHLTAVGKLLDNLNQDAPDTYHYVVSEPLGRNSYKERYLFVYRPDQVSAVDSYYYDDGCEPCGNDTFNREPAIVRFFSRFTEVREFAIVPLHAAPGDAVAEIDALYDVYLDVQEKWGLEDVMLMGDFNAGCSYVRPSQWSSIRLWTSPTFQWLIPDSADTTATPTHCAYDRIVVAGMLLRGAVVPDSALPFNFQAAYGLSDQLAQAISDHYPVEVMLK
Regarding B1, the figures for the “FEV1 Change (percent change in FEV1 (L), comparison to control after 24 weeks of therapy)” value with CF patients (2.5 mg BID/24 weeks) and with CF patients (2.5 mg TID/24 weeks) were 5.8 ± 0.7^c % and 5.6 ± 0.7^c %, respectively.

These data come from patent US7973029B2 (Gilead Sciences, Inc., priority 2007, dated 2011).
